# Measurements from patent US20220371989A1, “N-ACYL-TYROSINE DERIVATIVES AND USES THEREOF” (Sederma, priority 2019, published 2022).
# Entries after “also recorded” stand apart in the source; their conditions may differ.
# Key:
# Assay type in all cases: cell-based
# [1] = system: Enterococcus faecium EF379 (VRE); assay: microbroth dilution antimicrobial assay, E. faecium EF379 (VRE); settings: for IC50: Enterococcus faecium EF379 (VRE), 22 h, 37° C., triplicate, read-out: IC50 of N-Acyltyrosines
# Description: (§1) α-Methylation of N-pamitoyltyrosines confers antimicrobial activity. Compound (1) was initially screened for antimicrobial activity against the following panel of pathogenic bacteria and fungi in Table 1 in microbroth dilution assays: methicillin-resistant Staphylococcus aureus (MRSA), Staphylococcus warneri, vancomycin-resistant Enterococcus faecium (VRE), Pseudomonas aeruginosa, Proteus vulgaris and Candida albicans. […] The inventors were aware of no reports on anti-Staphylococcus activity of N-acyltyrosines or on anti-Enterococcal activity of any N-acylated amino acid; thus, it was hypothesized that the α-methyl substituent of compound (1) may be a key component of the antimicrobial pharmacophore of compound 1, may confer Staphylococcus inhibitory activity to N-acyltyrosines, and/or perhaps may play a role in their Enterococcus activity.
# (§2) To test the proposed structure-activity relationship (SAR), a structural analogue compound (2) of compound (1) was synthesized that lacks an a-methyl substituent, and compound (2) was tested for antimicrobial activity in parallel with compound (1). Analogues (3) and (4) were also synthesized and assayed to further support a potential SAR involving the O-methyl substituent (FIG. 16-21). To thoroughly characterize the anti-Enterococcal activity of compounds (1)-(4), five veterinary clinical isolates from veterinary cases (in addition to VRE EF379) were obtained for this study. All five clinical isolates were classified as vancomycin-susceptible.
# (§3) Evaluation of antimicrobial activity and cytotoxicity. The following five Enterococcus spp. were isolated from clinical specimens at the Atlantic Veterinary College (AVC) by the AVC Diagnostic Services Bacteriology Laboratory. Isolates were identified using the Bruker microflex LT MALDI-TOF with MBT Compass version 4.179. The direct colony transfer method was used with the Bruker Matrix HCCA (α-cyano-4-hydroxycinnamic acid) overlay, following manufacturer guidelines. Score values between 2.00 and 3.00 were considered high confidence identifications. The following isolates (with source species) were identified: E. faecium 15337 (feline), E. faecalis 16371 (canine), E. gallinarum 20993 (erinaceine), E. casseliflavus 15984 (equine) and E. hirae 17446 (avine). Antimicrobial activity of 1-4 was evaluated against all five clinical Enterococcus isolates in addition to methicillin-resistant Staphylococcus aureus ATCC 33591 (MRSA), S. warneri ATCC 17917, vancomycin-resistant Enterococcus faecium EF379 (VRE), Pseudomonas aeruginosa ATCC 14210, Proteus vulgaris ATCC 12454 and Candida albicans ATCC 14035. All testing was carried out in triplicate according to the Clinical Laboratory Standards Institute testing standards in a 96-well plate microbroth dilution assay as previously described.^14 Optical density was measured using a Thermo Scientific Varioskan Flash plate reader at 600 nm, recording at time zero and then again after incubation for 22 h (37° C.) to determine percent growth inhibition. Cytotoxicity was evaluated against Vero kidney cell line from African green monkey (Cercopithecus aethiops), MCF7 human breast adenocarcinoma cells (ATCC HTB-22), human breast adenocarcinoma cells (ATCC HTB-26) and HCT-116 human colorectal carcinoma cells (ATCC CCL-247). All assays were carried out as described previously.^14 Fluorescence was measured using a Thermo Scientific Varioskan Flash plate reader at 560/12 excitation, 590 nm emission both at time zero and 4 h after alamarBlue (Invitrogen) addition. For both antimicrobial and cytotoxicity data, growth inhibition was expressed as a percentage and plotted against the logarithm of concentration.
# [2] = system: Enterococcus faecium 15337; assay: microbroth dilution antimicrobial assay, E. faecium 15337; settings: for IC50: Enterococcus faecium 15337, microbroth dilution, 22 h, 37° C., triplicate, read-out: IC50 of N-Acyltyrosines
# Procedure: as §2, §3
# [3] = system: Enterococcus faecalis 16371; assay: microbroth dilution antimicrobial assay, E. faecalis 16371; settings: for IC50: Enterococcus faecalis 16371, microbroth dilution, 22 h, 37° C., triplicate, read-out: IC50 of N-Acyltyrosines
# Procedure: as §2, §3
# [4] = system: Enterococcus gallinarum 20993; assay: microbroth dilution antimicrobial assay, E. gallinarum 20993; settings: for IC50: Enterococcus gallinarum 20993, microbroth dilution, 22 h, 37° C., triplicate, read-out: IC50 of N-Acyltyrosines
# Procedure: as §2, §3
# [5] = system: Enterococcus casseliflavus 15984; assay: microbroth dilution antimicrobial assay, E. casseliflavus 15984; settings: for IC50: Enterococcus casseliflavus 15984, microbroth dilution, 22 h, 37° C., triplicate, read-out: IC50 of N-Acyltyrosines
# Procedure: as §2, §3
# [6] = system: Enterococcus hirae 17446; assay: microbroth dilution antimicrobial assay, E. hirae 17446; settings: for IC50: Enterococcus hirae 17446, microbroth dilution, 22 h, 37° C., triplicate, read-out: IC50 of N-Acyltyrosines
# Procedure: as §2, §3
# [7] = system: Staphylococcus aureus ATCC 33591 (MRSA); assay: microbroth dilution antimicrobial assay, S. aureus ATCC 33591 (MRSA); settings: for growth inhibition (in words): S. aureus (MRSA); for growth inhibition (in words) / IC50: microbroth dilution; for IC50: Staphylococcus aureus ATCC 33591 (MRSA), 22 h, 37° C., triplicate, read-out: IC50 of N-Acyltyrosines; for growth at the highest concentration tested (in words): 128 μg/mL
# Description: as §1, §3
# [8] = system: Staphylococcus warneri ATCC 17917; assay: microbroth dilution antimicrobial assay, S. warneri ATCC 17917; settings: for IC50: ATCC17917, Staphylococcus warneri ATCC 17917, 22 h, 37° C., triplicate, read-out: IC50 of N-Acyltyrosines; for IC50 / growth inhibition (in words): microbroth dilution; for growth at the highest concentration tested (in words): 128 μg/mL
# Description: as §1, §3
# [9] = system: Pseudomonas aeruginosa ATCC 14210; assay: microbroth dilution antimicrobial assay, P. aeruginosa ATCC 14210
# Description: (§4) α-Methylation of N-pamitoyltyrosines confers antimicrobial activity. Compound (1) was initially screened for antimicrobial activity against the following panel of pathogenic bacteria and fungi in Table 1 in microbroth dilution assays: methicillin-resistant Staphylococcus aureus (MRSA), Staphylococcus warneri, vancomycin-resistant Enterococcus faecium (VRE), Pseudomonas aeruginosa, Proteus vulgaris and Candida albicans. […]
# (§5) Evaluation of antimicrobial activity and cytotoxicity. […] Antimicrobial activity of 1-4 was evaluated against all five clinical Enterococcus isolates in addition to methicillin-resistant Staphylococcus aureus ATCC 33591 (MRSA), S. warneri ATCC 17917, vancomycin-resistant Enterococcus faecium EF379 (VRE), Pseudomonas aeruginosa ATCC 14210, Proteus vulgaris ATCC 12454 and Candida albicans ATCC 14035. All testing was carried out in triplicate according to the Clinical Laboratory Standards Institute testing standards in a 96-well plate microbroth dilution assay as previously described.^14 Optical density was measured using a Thermo Scientific Varioskan Flash plate reader at 600 nm, recording at time zero and then again after incubation for 22 h (37° C.) to determine percent growth inhibition. […] For both antimicrobial and cytotoxicity data, growth inhibition was expressed as a percentage and plotted against the logarithm of concentration.
# [10] = system: Proteus vulgaris ATCC 12454; assay: microbroth dilution antimicrobial assay, Proteus vulgaris ATCC 12454
# Description: as §4, §5
# [11] = system: Candida albicans ATCC 14035; assay: microbroth dilution antimicrobial assay, Candida albicans ATCC 14035
# Description: as §4, §5
IC50 ([1]; microbroth dilution) [µM],IC50 [2] [µM],IC50 [3] [µM],IC50 [4] [µM],IC50 [5] [µM],IC50 [6] [µM],IC50 [7] [µM],IC50 [8] [µM],Compound,growth inhibition (in words) [7],growth inhibition (in words) ([8]; S. warneri),growth at the highest concentration tested (in words) ([7]; S. aureus),growth at the highest concentration tested (in words) ([8]; S. warneri),further results
1.6,7.2,7.4,4,3.1,4.1,> 286,> 286,"CCCCCCCCCCCCCCCC(=O)N[C@@](C)(Cc1ccc(OC)cc1)C(=O)O [Compound 1, N-Palmitoyl-α,O-dimethyl-L-tyrosine]",Growth inhibition was observed; also recorded: inhibited,Growth inhibition was observed,–,–,"growth inhibition (in words) ([1]; VRE, initial screen, microbroth dilution): Growth inhibition was observed; Incomplete growth inhibition ([7]; S. aureus, 8-128 μg/mL (footnote b)): < 75%; concentration at which maximum inhibition was achieved ([7]; S. aureus, inhibition incomplete, plateaued at higher concentrations (FIG. 25)): 8 µg/mL; Incomplete growth inhibition ([8]; S. warneri, from 2-64 μg/mL (footnote b)): < 50%; IC50 ([9]; ATCC14210, Pseudomonas aeruginosa ATCC 14210, microbroth dilution, read-out: IC50 of N-Acyltyrosines): > 286 µM; antimicrobial activity (in words) ([9]; Gram-negative pathogen Pseudomonas aeruginosa, initial screen): no activity was observed; IC50 ([10]; ATCC12454, Proteus vulgaris ATCC 12454, microbroth dilution, read-out: IC50 of N-Acyltyrosines): > 286 µM; antimicrobial activity (in words) ([10]; Gram-negative pathogen Proteus vulgaris, initial screen): no activity was observed; IC50 ([11]; ATCC14035, Candida albicans ATCC 14035, microbroth dilution, read-out: IC50 of N-Acyltyrosines): > 286 µM; antimicrobial activity (in words) ([11]; fungal pathogen Candida albicans, initial screen): no activity was observed"
13.3,10.5,> 295,71.5,10.7,3.6,> 295,> 295,"CCCCCCCCCCCCCCCC(=O)N[C@@H](Cc1ccc(OC)cc1)C(=O)O [Compound 2, N-Palmitoyl-O-methyl-L-tyrosine]",–,–,unaffected,unaffected,"Enterococcus inhibitory activity (in words) ([3]; E. faecalis 16371, FIG. 24 legend): inactive"
5.3,9.9,9.2 to 18.4,4.6,9,4.6,9.2 to 18.4,9.2 to 18.4,"CCCCCCCCCCCCCCCC(=O)N[C@@](C)(Cc1ccc(O)cc1)C(=O)O [Compound 3, N-Palmitoyl-α-methyl-L-tyrosine]",inhibited,inhibited,–,–,–
10.7,> 305,77.1,146,32.1,5.6,> 305,> 305,"CCCCCCCCCCCCCCCC(=O)N[C@@H](Cc1ccc(O)cc1)C(=O)O [Compound 4, N-Palmitoyl-L-tyrosine]",–,–,unaffected,unaffected,"Enterococcus inhibitory activity (in words) ([2]; E. faecium 15337, FIG. 24 legend): inactive; Incomplete growth inhibition ([2]; E. faecium 15337, at all tested concentrations (footnote b)): < 50"
–,–,–,–,–,–,–,–,"CO[C@H]1/C=C/O[C@@]2(C)Oc3c(C)c(O)c4c(O)c(c(/C=N/N5CCN(C)CC5)c(O)c4c3C2=O)NC(=O)/C(C)=C\C=C\[C@H](C)[C@H](O)[C@@H](C)[C@@H](O)[C@@H](C)[C@H](OC(C)=O)[C@@H]1C [RIF, reference compound]",–,–,–,–,"IC50 of positive control antibiotic ([1]; E. faecium EF379, positive control): 4 µg/mL; IC50 of positive control antibiotic ([2]; E. faecium 15337, positive control): > 16 µg/mL; IC50 of positive control antibiotic ([3]; E. faecalis 16371, positive control): > 8 µg/mL; IC50 of positive control antibiotic ([4]; E. gallinarum 20993, positive control): 3 µg/mL; IC50 of positive control antibiotic ([5]; E. casseliflavus 15984, positive control): 0.9 µg/mL; IC50 of positive control antibiotic ([6]; E. hirae 17446, positive control): < 0.5 µg/mL"
–,–,–,–,–,–,–,–,"CN[C@H](CC(C)C)C(=O)N[C@H]1C(=O)N[C@@H](CC(N)=O)C(=O)N[C@H]2C(=O)N[C@H]3C(=O)N[C@H](C(=O)N[C@H](C(=O)O)c4cc(O)cc(O)c4-c4cc3ccc4O)[C@H](O)c3ccc(c(Cl)c3)Oc3cc2cc(c3O[C@@H]2O[C@H](CO)[C@@H](O)[C@H](O)[C@H]2O[C@H]2C[C@](C)(N)[C@H](O)[C@H](C)O2)Oc2ccc(cc2Cl)[C@H]1O [VAN, reference compound]",–,–,–,–,"IC50 of positive control antibiotic ([7]; S. aureus ATCC 33591, positive control): 2 µg/mL; IC50 of positive control antibiotic ([8]; S. warneri, positive control): < 0.125 µg/mL"
